Laboratory results taken from paper PMC11753601 (Angewandte Chemie (International Ed. in English), 2024).

Test system: E-Box DNA
Type: binding
Settings: pH 8

Substance: (AcATEENVKRRTHNVLERQRRNELKRSFFG)2K (sidechain bridge or staple) [MiniMYC 1]
- Binding to E-Box DNA in EMSA (in words): no binding

Substance: (AcATEENVKRRTHNVLERQRRNELKRSSCFA)2-Linker (sidechain bridge or staple) [MiniMYC 3]
- Binding to E-Box DNA in EMSA (in words): did not show any specific association

Substance: (AcVKRRTHNVLERQRRNELKRSFFALRDQIPELENNEKAPKVVILKKATAYILSAβC)2-linker (sidechain bridge or staple) [DuoMYC 7]
- Kd (read-out: KD for E-Box DNA measured by EMSA): ~174 nM
